Consider twelve compounds from patent US5122523A, “N-acylamino acid derivatives and their pharmaceutical compositions” (Banyu Pharmaceutical Co., Ltd., priority 1987, dated 1992).

Data set [1] addresses T1, human plasma renin (Homo sapiens, UniProt P00797).
T1 construct: from tissue; host or cells: human plasma
T1 sequence (P00797 67-406): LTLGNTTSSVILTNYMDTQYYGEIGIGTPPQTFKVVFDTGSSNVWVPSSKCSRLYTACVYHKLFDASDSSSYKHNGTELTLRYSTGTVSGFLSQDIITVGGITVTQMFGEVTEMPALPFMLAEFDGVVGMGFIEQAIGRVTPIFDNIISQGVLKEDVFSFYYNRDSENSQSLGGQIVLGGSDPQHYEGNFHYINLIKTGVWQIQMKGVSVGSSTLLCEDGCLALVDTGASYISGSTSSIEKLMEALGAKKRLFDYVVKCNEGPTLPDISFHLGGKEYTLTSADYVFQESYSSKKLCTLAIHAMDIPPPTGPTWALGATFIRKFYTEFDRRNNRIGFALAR
Kind of data set: Renin inhibiting activities (human plasma, angiotensin I by radioimmunoassay). It is filed as biochemical. The conditions noted are these: pH7.4, 37° C., one hour. The method, then: TEST EXAMPLE 1: Renin inhibiting activities
To 156 μl of a 0.2M sodium phosphate buffer solution (pH7.4), 40 μl of a solution mixture of 34 mM 8-hydroxyquinoline and 100 mM disodium ethylenediamine tetraacetate, 4 μl of dimethyl sulfoxide or a dimethyl sulfoxide solution of an inhibitor and 200 μl of human plasma were added and reacted at 37° C. for one hour. Then, pepstatin was added thereto to terminate the reaction, and the amount of the resulting angiotension I was measured by radio immunoassay whereby the inhibiting activity was determined.

Data set [2] is described as follows: Absorption test by oral administration in rats (plasma concentration). Type of data set: in vivo. The conditions noted are these: rat, rats (n=4), 10 mg/kg oral, read-out: Concentration of the compound in plasma. The method, then: TEST EXAMPLE 2: Absorption test by oral administration
10 mg/kg of the compound of Example 16 was orally administered to rats (n=4), whereupon the concentration of the compound in the plasma was measured. The concentration in the plasma was calculated by the inhibiting activities against human plasma renin.

pIC50: −log10 of the molar value.

As a reminder, the pIC50 is the negative decadic logarithm of the IC50, by convention in mol/L. A low value points to a high IC50. Regarding `CCCC[C@H](NC(=O)C(Cc1cccc2ccccc12)CS(=O)(=O)CC)C(=O)N[C@@H](CC1CCCCC1)[C@@H](O)[C@H](O)CN1CCOCC1` (mixture of isomers) [Example 16, (2RS,3RS,4S)-4-{L-N-[3-ethylsulfonyl-2-(1-naphthylmethyl)propionyl]norleucyl}amino-5-cyclohexyl-1-morpholino-2,3-pentandiol], the pIC50 in data set [1] was 8.47. For the same compound, the concentration at 0.5 h in data set [2] (1/2 hrs) was 267 ng/mL. For the same compound, the concentration at 0.25 h in data set [2] (1/4 hrs) was determined as 212 ng/mL. Further, the concentration at 10 min in data set [2] (1/6 hrs) was found to be 136 ng/mL. In data set [2] (1/12 hrs), the concentration at 5 min is 89 ng/mL. Moreover, the concentration at 1 h in data set [2] (1 hr) worked out at 183 ng/mL. For the same compound, the concentration at 2 h in data set [2] (2 hrs) was 85 ng/mL. The concentration at 4 h in data set [2] (4 hrs) came out at 34 ng/mL. Moreover, the concentration at 8 h in data set [2] (8 hrs) is 12 ng/mL. The concentration at 24 h in data set [2] (24 hrs) came to 7 ng/mL.
In data set [1], `CCCC[C@H](NC(=O)[C@H](Cc1cccc2ccccc12)CS(=O)(=O)CC)C(=O)N[C@@H](CC(C)C)[C@@H](O)[C@@H](O)CN1CCOCC1` [Example 19, (2S,3R,4S)-4-{L-N-[(2S)-3-ethylsulfonyl-2-(1-naphthylmethyl)propionyl]norleucyl}amino-6-methyl-1-morpholino-2,3-heptanediol] showed a pIC50 of 8.08.
The same measure, in the same setting: under `CCS(=O)(=O)C[C@@H](Cc1cccc2ccccc12)C(=O)N[C@@H](Cc1c[nH]cn1)C(=O)N[C@@H](CC1CCCCC1)[C@@H](O)[C@@H](O)CN1CCOCC1` [Example 31, (2S,3R,4S)-4-{L-N^α -[(2S)-3-ethylsulfonyl-2-(1-naphthylmethyl)propionyl]histidyl}amino-5-cyclohexyl-1-morpholino-2,3-pentanediol] stands 8.38; under `CC(C)[S+]([O-])C[C@@H](Cc1cccc2ccccc12)C(=O)N[C@@H](Cc1c[nH]cn1)C(=O)N[C@@H](CC1CCCCC1)[C@@H](O)[C@@H](O)CN1CCOCC1` (stereo partly drawn) [Example 35, (2S,3R,4S)-4-{L-N^α -[(2S)-3-isopropylsulfinyl-2-(1-naphthylmethyl)propionyl]histidyl}amino-5-cyclohexyl-1-morpholino-2,3-pentanediol], 8.23; under `CCCC[C@H](NC(=O)[C@H](Cc1cccc2ccccc12)CS(=O)(=O)C(C)(C)C)C(=O)N[C@@H](CC1CCCCC1)[C@@H](O)[C@@H](O)CN1CCOCC1` [Example 38, (2S,3R,4S)-4-{L-N-[(2S)-3-tert-butylsulfonyl-2-(1-naphthylmethyl)propionyl]norleucyl}amino-5-cyclohexyl-1-morpholino-2,3-pentanediol], 8.23.
In turn, `CCCC[C@H](NC(=O)[C@@H](CSc1ncccn1)Cc1cccc2ccccc12)C(=O)N[C@@H](CC1CCCCC1)[C@@H](O)[C@@H](O)CN1CCOCC1` [Example 40, (2S,3R,4S)-4-{L-N-[(2S)-2-(1-naphthylmethyl)-3-(pyrimidin-2-yl)thiopropionyl]norleucyl}amino-5-cyclohexyl-1-morpholino-2,3-pentanediol] showed a pIC50 in data set [1] of 8.28.
On the same count and under the same terms, under `CCCC[C@H](NC(=O)[C@H](Cc1cccc2ccccc12)CS(=O)(=O)c1ncccn1)C(=O)N[C@@H](CC1CCCCC1)[C@@H](O)[C@@H](O)CN1CCOCC1` [Example 41, (2S,3R,4S)-4-{L-N-[(2S)-2-(1-naphthylmethyl)-3-(pyrimidin-2-yl)sulfonylpropionyl]norleucyl}amino-5-cyclohexyl-1-morpholino-2,3-pentanediol] stands 8.77; under `CCCC[C@H](NC(=O)[C@H](Cc1ccccc1)CS(=O)(=O)c1ncccn1)C(=O)N[C@@H](CC1CCCCC1)[C@@H](O)[C@@H](O)CN1CCOCC1` [Example 44, (2S,3R,4S)-4-{L-N-[(2S)-2-benzyl-3-(pyrimidin-2-yl)sulfonylpropionyl]norleucyl}amino-5-cyclohexyl-1-morpholino-2,3-pentanediol], 8.42.
On the same count and under the same terms, with `CCCC[C@H](NC(=O)[C@H](Cc1cccc2ccccc12)CS(=O)(=O)Cc1ccco1)C(=O)N[C@@H](CC1CCCCC1)[C@@H](O)[C@@H](O)CN1CCOCC1` [Example 47, (2S,3R,4S)-4-{L-N-[(2S)-3-furfurylsulfonyl-2-(1-naphthylmethyl)propionyl]norleucyl}amino-5-cyclohexyl-1-morpholino-2,3-pentanediol] the figure was 8.64; with `CCCC[C@H](NC(=O)[C@H](Cc1cccc2ccccc12)C[S+]([O-])CC)C(=O)N[C@@H](CC1CCCCC1)[C@@H](O)[C@@H](O)CN1CCOCC1` (stereo partly drawn) [Example 49(A), (2S,3R,4S)-4-{L-N-[(2S)-3-ethylsulfinyl-2-(1-naphthylmethyl)propionyl]norleucyl}amino-5-cyclohexyl-1-morpholino-2,3-pentanediol], 8.21; with `CCCC[C@H](NC(=O)[C@H](Cc1ccccc1)CS(=O)(=O)C1CCCC1)C(=O)N[C@@H](CC1CCCCC1)[C@@H](O)[C@@H](O)C[N+]1([O-])CCOCC1` [Example 52, N-[(2S,3R,4S)-4-[L-N-[(2S)-3-cyclopentanesulfonyl-2-benzylpropionyl]norleucyl]amino-5-cyclohexyl-2,3-dihydroxypentyl]morpholine N-oxide], 8.52.
On the same count and under the same terms, with `CCCC[C@H](NC(=O)[C@H](Cc1ccccc1)CS(=O)(=O)Cc1ccco1)C(=O)N[C@@H](CC1CCCCC1)[C@@H](O)[C@@H](O)CN1CCOCC1` [Example 56, (2S,3R,4S)-4-{L-N-[(2S)-2-benzyl-3-furfurylsulfonylpropionyl]norleucyl}amino-5-cyclohexyl-1-morpholino-2,3-pentanediol] the figure was 8.70.
